We go through 15 molecules from patent publication US8034818B2, “Therapeutic uses of derivatives of piperidinyl- and piperazinyl-alkyl carbamates” (Sanofi-Aventis, priority 2004, dated 2011).

The melting point is the temperature, or range, at which the solid turns liquid.

Structures are written as SMILES. Where a name gives a salt, the structure may show the parent alone.

The subject of the first data set is male OF1 mice. The experiment in a line: test of analgesia: abdominal tractions induced with PBQ (phenylbenzoquinone) i.p. In kind it is in vivo, mouse. As to conditions: (a) 1 mg/kg p.o. at 2 hours, PBQ 2 mg/kg i.p. On the procedure:
The in vivo activity of the compounds of the invention was evaluated in a test of analgesia.
Thus, the intraperitoneal (i.p.) administration of PBQ (phenylbenzoquinone, 2 mg/kg in 0.9% sodium chloride solution containing 5% ethanol) to male OF1 mice weighing 25 to 30 g, causes abdominal tractions, on average 30 torsions or contractions during the period of 5 to 15 minutes after injection. The test compounds are administered orally or intraperitoneally as a 0.5% suspension in Tween 80, 60 minutes or 120 minutes before the administration of PBQ. Under these conditions, the most powerful compounds of the invention produce a 35% to 70% reduction in the number of tractions induced with PBQ, within a dose range of between 1 and 30 mg/kg.
`CNC(=O)COC(=O)NCCC1CCN(c2cc3ccccc3cn2)CC1` [Compound 166, 2-(Methylamino)-2-oxoethyl 2-[1-(3-isoquinolyl)-4-piperidyl]ethylcarbamate]: the “Reduction in the number of tractions (%)” value was −62% (a).

Still in this data set, the particulars now being: (b) 3 mg/kg p.o. at 1 hour, PBQ 2 mg/kg i.p.
As to `CNC(=O)COC(=O)NCCC1CCN(c2cccc(C)n2)CC1` [Compound 47, 2-(Methylamino)-2-oxoethyl 2-[1-(6-methyl-2-pyridyl)-4-piperidyl]ethylcarbamate hydrochloride], the “Reduction in the number of tractions (%)” value was −63% (b).

Take `CNC(=O)COC(=O)NCCC1CCN(c2ccc3ccccc3n2)CC1` [Compound 126, 2-(Methylamino)-2-oxoethyl 2-[1-(2-quinolyl)-4-piperidyl]ethylcarbamate]: the “Reduction in the number of tractions (%)” value was −43% (b).

Tested on in a further data set: not given
Test: not given
Conditions: not given
With `NC(=O)COC(=O)NCCC1CCN(c2ccc3ccccc3n2)CC1` [Compound 127, 2-Amino-2-oxoethyl 2-[1-(2-quinolyl)-4-piperidyl]ethylcarbamate], the melting point lay in the range of 135 to 137 °C.

Regarding `CNC(=O)COC(=O)NCCC1CCN(c2cc3ccccc3cn2)CC1` [Compound 166, 2-(Methylamino)-2-oxoethyl 2-[1-(3-isoquinolyl)-4-piperidyl]ethylcarbamate], the melting point is 156 to 158 °C. Same read-out and setting: next, `CNC(=O)COC(=O)NCCC1CCN(c2cccc(C)n2)CC1` (as salt: hydrochloride) [Compound 47, 2-(Methylamino)-2-oxoethyl 2-[1-(6-methyl-2-pyridyl)-4-piperidyl]ethylcarbamate hydrochloride]: 95 to 100 °C; `CNC(=O)COC(=O)NCCC1(F)CCN(c2ccc3ccccc3n2)CC1` [Compound 128, 2-(Methylamino)-2-oxoethyl 2-[4-fluoro-1-(2-quinolyl)-4-piperidyl]ethylcarbamate]: 147 to 149 °C.

`CNC(=O)COC(=O)NCCC1CCN(c2cncc3ccccc23)CC1` (as salt: hydrochloride) [Compound 172, 2-(Methylamino)-2-oxoethyl 2-[1-(4-isoquinolyl)-4-piperidyl]ethylcarbamate hydrochloride] returned a melting point of 205 to 210 °C. The same measure, in the same setting: next, `CNC(=O)COC(=O)NCCC1CCN(c2cccc(CC(C)C)n2)CC1` [Compound 49, 2-(Methylamino)-2-oxoethyl 2-[1-(6-isobutyl-2-pyridyl)-4-piperidyl]ethylcarbamate]: 97 to 99 °C. In turn, `NC(=O)COC(=O)NCC1CCN(c2cccc(-c3ccccc3)n2)CC1` [Compound 58, 2-Amino-2-oxoethyl 2-[1-(6-phenyl-2-pyridyl)-4-piperidyl]methylcarbamate] returned a melting point of 131 to 132 °C. Same read-out and setting: next, `NC(=O)COC(=O)NCCC1CCN(c2cccc(C(F)(F)F)c2)CC1` [Compound 44, 2-Amino-2-oxoethyl 2-{1-[3-(trifluoromethyl)phenyl]-4-piperidyl}ethylcarbamate]: 140 to 142 °C; `NC(=O)COC(=O)NCCC1CCN(c2ccc3cc(Cl)ccc3n2)CC1` [Compound 137, 2-Amino-2-oxoethyl 2-[1-(6-chloro-2-quinolyl)-4-piperidyl]ethylcarbamate]: 189 to 191 °C. On the same count and under the same terms, next, `NC(=O)COC(=O)NCCC1CCN(c2nccc3cc(F)ccc23)CC1` [Compound 158, 2-Amino-2-oxoethyl 2-[1-(6-fluoro-1-isoquinolyl)-4-piperidyl]ethylcarbamate]: 135 to 139 °C; `CNC(=O)COC(=O)NCCC1CCN(c2ccc3c(Cl)cccc3n2)CC1` [Compound 130, 2-(Methylamino)-2-oxoethyl 2-[1-(5-chloro-2-quinolyl)-4-piperidyl]ethylcarbamate]: 158 to 162 °C; `CNC(=O)COC(=O)NCCN1CCN(c2cccc3ccccc23)CC1` (as salt: hydrochloride) [Compound 38, 2-(Methylamino)-2-oxoethyl 2-[4-(1-naphthyl)-1-piperazinyl]ethylcarbamate hydrochloride]: 166 °C. `CNC(=O)COC(=O)NCC1CCN(c2nccc3ccccc23)CC1` (as salt: hydrochloride) [Compound 154, 2-(Methylamino)-2-oxoethyl [1-(1-isoquinolyl)-4-piperidyl]methylcarbamate hydrochloride]: the melting point is 208 to 212 °C (dec.). For the molecule `CNC(=O)COC(=O)NCCC1CCN(c2ccc3ccccc3n2)CC1` [Compound 126, 2-(Methylamino)-2-oxoethyl 2-[1-(2-quinolyl)-4-piperidyl]ethylcarbamate], the melting point is 125 to 128 °C.
